Measured values taken from US20060079453A1, “Hla binding peptides and their uses” (priority 2002, published 2006).
Values joined by “and” are separate entries in the source; they are usually repeats but may differ in a detail not shown here. Equal values may be shown once. Read-outs that look alike come from different tables or passages of the source. No end group written: not given here.

Assays:
Assay in all cases: biochemical
[1] = target: H-2 Db (Mus musculus, UniProt P01899); type: binding, murine; details: Db
[2] = target: H-2Dd (Mus musculus, UniProt P01900); type: binding, murine
[3] = target: HLA-DR DRB1*1101 (DR11) (Homo sapiens, UniProt P01903+P01911, A100R/A169T/A87E/I96F/K41T/L162R/M171V/P40S/Q125H/Q178H/Q39Y/Q99D/R42S/S66Y/T262R/V115G/W38E); type: binding
[4] = target: HLA-DR DRB5*0101 (DR51) (Homo sapiens, UniProt P01903+Q30154); type: binding
[5] = target: HLA-DR DRB1*0405 (DR4) (Homo sapiens, UniProt P01903+P01911, A100R/A169T/D86S/F76Y/I96L/K127E/L162R/M171V/N62H/P40V/Q125Y/R42H/S133A/S149N/S66Y/V115G/V209L/W38E); type: binding; details: DRB1 *0405
[6] = target: HLA-DR DRB1*0802 (DR8) (Homo sapiens, UniProt P01903+P01911, A100R/A103L/A169T/F76Y/H45Y/I96F/K41T/L162R/M171V/P40S/Q125H/Q178H/Q39Y/Q99D/R218S/R42G/S66Y/V115G/W38E); type: binding
[7] = target: HLA-DQ DQA1*0301/B*0301 (DQ7) (Homo sapiens, UniProt P01909+P01920, A209T/C70Q/DUP78-78/E183D/F237L/G63E/I129T/K197E/L178F/L74F/L98V/Q57E/Q76R/S185I/S97I/T49S/V73L); type: binding
[8] = target: HLA-DR DRB4*0101 (DR53) (Homo sapiens, UniProt P01903+P13762, G164S); type: binding
[9] = target: HLA-DR DRB1*0901 (DR9) (Homo sapiens, UniProt P01903+P01911, A100R/A103E/D57H/D86V/F55Y/F60I/F76Y/I96F/K127E/L162R/M171V/P40D/Q125H/Q99R/R33Q/R42F/S133A/S66N/T210M/V115G/W38K/Y107V/Y59G/Y89S); type: binding; details: DRB1 *0901
[10] = target: HLA-DR DRB1*0701 (DR7) (Homo sapiens, UniProt P01903+P01911, A100R/A102G/A103Q/D57E/D86V/E43K/F76Y/K127E/L162R/M171V/P40G/Q125H/Q99D/R33Q/R42Y/R54Q/S133A/S66F/T210M/V115G/Y107V/Y59L/Y89S); type: binding; details: DRB1 *0701
[11] = target: HLA-DR DRB1*0401 (DR4) (Homo sapiens, UniProt P01903+P01911, A100K/A169T/F76Y/I96L/K127E/L162R/M171V/N62H/P40V/Q125Y/R42H/S133A/S149N/S66Y/V115G/V209L/W38E); type: binding; details: DRB1 *0401
[12] = target: HLA-DR DRB3*0101 (DR52) (Homo sapiens, UniProt P01903+P79483); type: binding
[13] = target: HLA-DR DRB1*1501 (DR15) (Homo sapiens, UniProt P01903+P01911); type: binding
[14] = target: HLA-DR DRB1*0301 (DR3) (Homo sapiens, UniProt P01903+P01911, A100K/A102G/A103R/A169T/F55Y/I96L/K41T/L162R/M171V/P40S/Q125H/Q178H/Q39Y/R42S/S66N/T106N/T262R/W38E/Y61H); type: binding
[15] = target: HLA-B*0702 (Homo sapiens, UniProt P01889); type: binding; details: B*0702 binding affinity (IC50)
[16] = target: HLA-B*5101 (Homo sapiens, UniProt P01889, A329T/A93T/A95T/C349S/D138N/D201E/D98Y/E187L/E204Q/E69T/G107R/I218V/K202T/L105A/L119W/N104I/Q94N/R106L/R155S/R180L/S101N/S121T/S35A/S48A/V306I/V36M/Y195H/Y91F); details: B*5101 binding affinity (IC50)
[17] = target: HLA-B*3501 (Homo sapiens, UniProt P01889, A329T/A93T/A95T/C349S/D201E/D98Y/E176V/E187L/E204Q/E69T/I218V/K202T/L119I/Q94N/R155S/R180L/S121R/S35A/S48A/T118I/V127L/V306I/V36M/Y140S/Y91F); details: B*3501 binding affinity (IC50)
[18] = target: HLA-B*5401 (Homo sapiens, UniProt P01889, A329T/C349S/D138N/D201E/E176V/E187T/E204Q/E69G/I76V/K202T/L119W/R155S/R180L/S121T/S35A/S48A/V127L/V306I/V36M/Y140L); type: binding; details: B*5401 binding affinity (IC50)
[19] = target: HLA-B*5301 (Homo sapiens, UniProt P01889, A329T/A93T/A95T/C349S/D201E/D98Y/E176V/E187L/E204Q/E69T/G107R/I218V/K202T/L105A/L119I/N104I/Q94N/R106L/R155S/R180L/S101N/S121R/S35A/S48A/T118I/V127L/V306I/V36M/Y140S/Y91F); type: binding; details: B*5301 binding affinity (IC50)
[20] = target: HLA-DR DRB1*1302 (DR13) (Homo sapiens, UniProt P01903+P01911, A100E/A169T/K41T/L162R/M171V/P40S/Q125H/Q178H/Q39Y/Q99D/R42S/S66N/T262R/V115G/W38E/Y61H); type: binding; details: read-out: DRBI *1302
Sequence of HLA-DR DRB1*1302 (DR13) (P01903 26-254 limits assumed, other chains not shown): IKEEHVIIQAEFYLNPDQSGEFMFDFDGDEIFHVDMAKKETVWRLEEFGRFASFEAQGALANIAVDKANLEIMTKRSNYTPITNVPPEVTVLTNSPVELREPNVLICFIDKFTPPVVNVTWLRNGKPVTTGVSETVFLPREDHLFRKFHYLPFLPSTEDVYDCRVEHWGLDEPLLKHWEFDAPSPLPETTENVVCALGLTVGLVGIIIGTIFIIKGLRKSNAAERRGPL

Sequence of H-2 Db (P61769 21-119): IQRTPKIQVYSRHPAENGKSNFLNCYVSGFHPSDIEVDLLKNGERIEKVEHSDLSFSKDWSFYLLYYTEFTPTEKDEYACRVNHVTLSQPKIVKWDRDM
Sequence of H-2 Db (P01899 25-362): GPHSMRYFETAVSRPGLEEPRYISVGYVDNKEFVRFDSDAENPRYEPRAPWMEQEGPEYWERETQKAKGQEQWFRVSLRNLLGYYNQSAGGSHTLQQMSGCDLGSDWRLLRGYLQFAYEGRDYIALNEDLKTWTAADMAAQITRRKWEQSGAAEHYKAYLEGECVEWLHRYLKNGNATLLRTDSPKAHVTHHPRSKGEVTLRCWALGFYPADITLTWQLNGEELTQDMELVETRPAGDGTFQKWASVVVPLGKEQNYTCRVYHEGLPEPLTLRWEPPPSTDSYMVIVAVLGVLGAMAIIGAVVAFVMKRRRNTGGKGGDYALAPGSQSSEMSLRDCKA
Sequence of H-2Dd (P01900 25-365): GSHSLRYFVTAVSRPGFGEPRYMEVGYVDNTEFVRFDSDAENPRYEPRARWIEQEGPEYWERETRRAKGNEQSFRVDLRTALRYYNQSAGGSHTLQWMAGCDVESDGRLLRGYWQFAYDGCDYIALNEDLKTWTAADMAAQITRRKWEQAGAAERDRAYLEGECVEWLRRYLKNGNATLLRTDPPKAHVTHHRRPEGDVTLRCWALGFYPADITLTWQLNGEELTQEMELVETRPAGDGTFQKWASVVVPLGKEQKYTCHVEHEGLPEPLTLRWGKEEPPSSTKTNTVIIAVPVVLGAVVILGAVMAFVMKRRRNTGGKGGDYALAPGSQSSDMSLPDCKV
Sequence of H-2Dd (P61769 21-119, further chain): as the sequence (P61769 21-119) above
Sequence of HLA-DR DRB1*1101 (DR11) (P01903 26-254 limits assumed, other chains not shown): as the sequence (P01903 26-254 limits assumed, other chains not shown) above
Sequence of HLA-DR DRB1*0301 (DR3) (P01903 26-254 limits assumed, other chains not shown): as above

Compound: CSCC[C@H](NC(=O)[C@@H](NC(=O)[C@H](CCC(=O)O)NC(=O)[C@H](CCSC)NC(=O)[C@H](CC(N)=O)NC(=O)[C@H](CCC(=O)O)NC(=O)[C@H](CC(N)=O)NC(=O)[C@H](CO)NC(=O)[C@H](C)N)[C@@H](C)O)C(=O)O
- IC50 [1]: 41 nM and 33 nM
- IC50 [2]: > 37000 nM

Compound: CC[C@H](C)[C@H](NC(=O)[C@@H](N)CCCCN)C(=O)N[C@@H](Cc1ccccc1)C(=O)NCC(=O)N[C@@H](CO)C(=O)N[C@@H](CC(C)C)C(=O)N[C@@H](C)C(=O)N[C@@H](Cc1ccccc1)C(=O)N[C@@H](CC(C)C)C(=O)N1CCC[C@H]1C(=O)N[C@@H](CCC(=O)O)C(=O)N[C@@H](CO)C(=O)N[C@@H](Cc1ccccc1)C(=O)N[C@@H](CC(=O)O)C(=O)NCC(=O)N[C@@H](CC(=O)O)C(=O)N1CCC[C@H]1C(=O)N[C@@H](C)C(=O)O
- IC50 ([3]; DRB1 *1101): > 52600 nM
- IC50 ([4]; DRB5 *0101): 8010 nM
- IC50 [5]: 37 nM
- IC50 [6]: > 75400 nM
- IC50 [7]: 320 nM
- IC50 ([8]; DRB4 *0101): 10000 nM
- IC50 [9]: 15800 nM
- IC50 [10]: 377 nM
- IC50 [11]: 1200 nM
- IC50 [12]: 43700 nM
- IC50 ([13]; DRBI *1501): 2260 nM
- IC50 [14]: 74200 nM

Compound: CC(C)C[C@H](NC(=O)CNC(=O)[C@H](CCC(N)=O)NC(=O)[C@H](Cc1ccc(O)cc1)NC(=O)[C@@H](NC(=O)[C@H](Cc1ccc(O)cc1)NC(=O)CNC(=O)[C@@H](N)CCCNC(=N)N)C(C)C)C(=O)O
- IC50 [1]: > 44000 nM
- IC50 [2]: > 37000 nM

Compound: (44)YAAAAAAKAAA
- IC50 ([7]; read-out: DQB1*0301): 26 nM

Compound: AGPYRAFVTI
- IC50 [2]: 5 nM

Compound: AHAAHAAHAAHAAHAA
- IC50 ([3]; DRB1 *1101): ≥ 200000 nM
- IC50 ([4]; DRB5 *0101): ≥ 200000 nM
- IC50 [7]: 58 nM
- IC50 [10]: > 250000 nM
- IC50 [11]: 80000 nM

Compound: APAAGPGPGPA
- IC50 [15]: 173 nM

Compound: APAAPGPGPGA
- IC50 [15]: 811 nM

Compound: APAGPGPGAPA
- IC50 [15]: 161 nM

Compound: APGPGPGLL
- IC50 [15]: 299 nM

Compound: APGPGPGTAL [APGPGPGTAL]
- IC50 [15]: 81 nM

Compound: APRGPGPGAL [APRGPGPGAL]
- IC50 [15]: 11 nM

Compound: APRGPGPGL
- IC50 [15]: 4.9 nM

Compound: APRTGPGPGL
- IC50 [15]: 15 nM

Compound: CLKDRRNFDIIPEEIK
- IC50 ([7]; read-out: DQB1*0301): 19400 nM

Compound: DDVWLGGLAEKFLPY
- IC50 ([7]; read-out: DQB1*0301): 241 nM

Compound: FPVRPQVPI
- IC50 [15]: 94 nM
- IC50 [16]: 39 nM
- IC50 [17]: 124 nM
- IC50 [18]: 9.1 nM

Compound: FSPRRNGYL
- IC50 [2]: 2.7 nM

Compound: GGAYRLIVF
- IC50 [2]: 3.5 nM

Compound: GPGHKARVI
- IC50 [15]: 1690 nM
- IC50 [16]: > 55000 nM
- IC50 [17]: > 72000 nM
- IC50 [18]: > 50000 nM

Compound: GPKVKQWPI
- IC50 [15]: 5500 nM
- IC50 [16]: > 55000 nM
- IC50 [17]: > 72000 nM
- IC50 [18]: > 50000 nM

Compound: GSDLVEALYLVCGER
- IC50 [7]: > 89300 nM

Compound: IDVWLGDLAENFLPY
- IC50 [7]: > 44600 nM

Compound: IDVWLGGLDENFLPY
- IC50 [7]: > 19200 nM

Compound: IDWDLGGLAENFLPY
- IC50 ([7]; read-out: DQB1*0301): 218 nM

Compound: KEDSHCAWTWRVEI
- IC50 ([7]; read-out: DQB1*0301): 4100 nM

Compound: KGPYRAFVTI
- IC50 [2]: 5.8 nM

Compound: KVPRNQDWL
- IC50 [1]: 38 nM

Compound: LGFVFTLTV
- IC50 [19]: > 93000 nM
- IC50 [15]: 849 nM
- IC50 [17]: > 72000 nM

Compound: QKEDAAVTIYIEMLQN
- IC50 ([7]; read-out: DQB1*0301): 515 nM

Compound: QLQQFQKEDAAVTIY
- IC50 [20]: 68 nM
- IC50 ([3]; read-out: DRB1 *1101): > 408000 nM
- IC50 ([4]; read-out: DRB5 *0101): 4270 nM
- IC50 ([7]; read-out: DQB1*0301): 26200 nM
- IC50 ([8]; read-out: DRB4 *0101): 1340 nM
- IC50 ([13]; read-out: DRBI *1501): 1720 nM

Compound: QPRAPIRPI
- IC50 [15]: 6770 nM
- IC50 [16]: > 55000 nM
- IC50 [17]: > 72000 nM
- IC50 [18]: > 100000 nM

Compound: RGAYRAFVTI
- IC50 [2]: 3.4 nM

Compound: RGKYRAFVTI
- IC50 [2]: 67 nM

Compound: RGPARAFVTI
- IC50 [2]: 1.04 nM

Compound: RGPFRAFVTI
- IC50 [2]: 0.78 nM

Compound: RGPGRAFYTI
- IC50 [2]: 7.2 nM
